Literature values as cited in patent publication US20100143437A1, “IMPLANTABLE ANALGESIC” (priority 2008, published 2010).

Details: in adults

half life: approximately 210 minutes
Compound: CCCCN1CCCCC1C(=O)Nc1c(C)cccc1C (stereo not shown) [bupivacaine, 1-butyl-N-(2,6-dimethylphenyl) piperidine-2-carboxamide]
